From PubChem BioAssay (NCI)
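Cultured in 96-well plates, cells were exposed to test compound for 48 hours across five concentrations. GI50 = concentration required for 50% inhibition of growth. Definition used: TGI = concentration required for complete inhibition of growth.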

What was measured:
Assay in all cases: NCI-60 cell line screen, 48 h
A498 renal = test system: A498 renal
CAKI-1 renal = test system: CAKI-1 renal
MOLT-4 leukemia = test system: MOLT-4 leukemia
OVCAR-3 ovarian = test system: OVCAR-3 ovarian
OVCAR-4 ovarian = test system: OVCAR-4 ovarian
SF-268 CNS = test system: SF-268 CNS
SK-MEL-28 melanoma = test system: SK-MEL-28 melanoma
SN12C renal = test system: SN12C renal
TK-10 renal = test system: TK-10 renal
SK-OV-3 ovarian = test system: SK-OV-3 ovarian

Row | SMILES | GI50 (A498 renal) | TGI (A498 renal) | GI50 (CAKI-1 renal) | TGI (CAKI-1 renal) | GI50 (MOLT-4 leukemia) | TGI (MOLT-4 leukemia) | GI50 (OVCAR-3 ovarian) | TGI (OVCAR-3 ovarian) | GI50 (OVCAR-4 ovarian) | TGI (OVCAR-4 ovarian) | GI50 (SF-268 CNS) | TGI (SF-268 CNS) | GI50 (SK-MEL-28 melanoma) | TGI (SK-MEL-28 melanoma) | GI50 (SN12C renal) | TGI (SN12C renal) | GI50 (TK-10 renal) | TGI (TK-10 renal) | GI50 (SK-OV-3 ovarian) [µM] | TGI (SK-OV-3 ovarian) [µM]
1 | OC(CN1CC1)C(O)CN1CC1 (stereo unspecified) | > 50 µg/mL | > 50 µg/mL | > 50 µg/mL | > 50 µg/mL | > 50 µg/mL | > 50 µg/mL | > 50 µg/mL | > 50 µg/mL | > 50 µg/mL | > 50 µg/mL | > 50 µg/mL | > 50 µg/mL | > 50 µg/mL | > 50 µg/mL | > 50 µg/mL | > 50 µg/mL | > 50 µg/mL | > 50 µg/mL |  | 
2 | C[C@H]1[C@H](C)CC[C@]2(C(=O)NCCNCCN)CC[C@]3(C)C(=CC[C@@H]4[C@@]5(C)CCC(=O)C(C)(C)[C@@H]5CC[C@]43C)[C@H]12 | 11.8 µM | 27.2 µM | 1.75 µM | 4.01 µM | 2.2 µM | 4.73 µM | 1.8 µM | 3.3 µM | 1.93 µM | 4 µM |  |  | 1.65 µM | 3.02 µM | 1.61 µM | 2.98 µM | 1.84 µM | 3.75 µM | 6.91 | 33.2
3 | CC(CC(=O)Nc1ccc(NC(=O)CC(C)N=NC(N)=S)cc1)N=NC(N)=S (stereo unspecified) |  | > 100 µM |  | > 100 µM |  | > 100 µM |  | > 100 µM |  | > 100 µM |  | > 100 µM |  | > 100 µM |  | > 100 µM |  | > 100 µM |  | 
4 | CN(C)Cc1c[nH]c2c(NCCN)c3c(c(NCCN)c12)C(=O)c1ccccc1C3=O |  |  | 20.8 µM | 41.7 µM | 1.7 µM | > 35.7 µM | 1.74 µM | 6.43 µM | 8.07 µM | 29.6 µM | 3.65 µM | 14.7 µM | 8.8 µM | 23.3 µM | 0.372 µM | 1.88 µM | 3.25 µM | 9.49 µM | 8.67 | 24.1
5 | CC1=C(C(=O)Nc2ccccc2C)C(/C=C/c2ccccc2)C(C(=O)Nc2ccccc2C)=C(C)N1 |  | > 100 µM |  | > 100 µM |  |  |  | > 100 µM |  | > 100 µM |  | > 100 µM |  | > 100 µM |  | > 100 µM |  | > 100 µM |  | > 100
6 | COCCOCCOCc1n(Cc2ccc3ccccc3n2)c2ccccc2[n+]1Cc1ccc2ccccc2c1 | 0.627 µM | 2.83 µM |  |  | 0.47 µM | 2.52 µM | 0.358 µM | 1.52 µM | 0.385 µM | 7.42 µM | 0.464 µM | 1.85 µM | 0.484 µM | 1.88 µM | 0.362 µM | 1.41 µM | 1.04 µM | 2.42 µM | 0.501 | 2.68
7 | Cc1cc(Nc2nc(SCc3ccc(C(=O)Nc4ccc(F)cc4N)cc3)nn3cccc23)n[nH]1 | 0.623 µM | 5.61 µM |  |  | 0.508 µM | 13.5 µM | 0.202 µM | 49.1 µM | 1.66 µM | 77.7 µM | 1.12 µM | > 100 µM | 2.83 µM | 51.8 µM | 1.25 µM | > 100 µM | 1.21 µM | 7.33 µM | 0.339 | 4.61
8 | C#CCC(N)(CO)C(=O)O (stereo unspecified) |  | > 100 µM |  | > 100 µM |  | > 100 µM |  | > 100 µM |  | > 100 µM |  | > 100 µM |  | > 100 µM |  |  |  | > 100 µM |  | > 100
9 | NC(=O)/C=C/C(=O)O |  |  |  |  |  | > 5000 µM |  |  |  | > 5000 µM |  | > 5000 µM |  | > 5000 µM |  | > 5000 µM |  | > 5000 µM |  | > 5000
10 | CC1(Cc2ccccc2)NC(=S)NC1=O (stereo unspecified) |  |  |  | > 100 µM |  |  |  |  |  |  |  | > 100 µM |  | > 100 µM |  | > 100 µM |  | > 100 µM |  | 
11 | O=c1c(Cl)c(Cl)cnn1CCc1ccncc1 |  | 44.6 µM |  | 3.99 µM |  | > 100 µM |  | 31.4 µM |  | 33 µM |  | 40.8 µM |  | 30.7 µM |  | 33.6 µM |  | > 100 µM |  | 
12 | CSc1c(C)c(C)nn1-c1ccccc1 |  | > 100 µM |  | > 100 µM |  | > 100 µM |  |  |  | > 100 µM |  | > 100 µM |  | > 100 µM |  | > 100 µM |  | > 100 µM |  | > 100
13 | Cn1cc(-c2csc(-c3cn(C)c4ccccc34)n2)c2cnccc21 | 2.06 µM | 3.88 µM | 2.58 µM | 9.12 µM |  |  | 2.16 µM | 4.13 µM | 1.46 µM | 11.1 µM | 1.92 µM | 3.92 µM | 1.77 µM | 3.21 µM | 1.66 µM | 3.1 µM | 2.25 µM | 4.18 µM | 2.52 | 6.33
14 | Cn1c2ccccc2c2c(=O)c3ccccc3[nH]c21 | 18 µM | 64.8 µM | > 100 µM | > 100 µM | > 100 µM | > 100 µM | > 100 µM | > 100 µM |  |  | 25 µM | > 100 µM | > 100 µM | > 100 µM | 38.5 µM | > 100 µM | 42.4 µM | > 100 µM |  | 
15 | O=c1c2c3c(sc2n2c(-c4cc(-c5ccccc5)nn4-c4ccccc4)nnc2n1Cc1ccccc1)CCCC3 | > 100 µM | > 100 µM | > 100 µM | > 100 µM |  |  | > 100 µM | > 100 µM | > 100 µM | > 100 µM | > 100 µM | > 100 µM | > 100 µM | > 100 µM | > 100 µM | > 100 µM | > 100 µM | > 100 µM | > 100 | > 100
16 | O=C(c1ccc2ccccc2c1)c1c(C(F)(F)F)n([O-])c2ccc(Cl)cc2[n+]1=O | 1.72 µM | 3.11 µM | 1.63 µM | 3.01 µM |  |  | 1.32 µM | 2.62 µM | 1.39 µM | 2.72 µM | 1.04 µM | 2.33 µM | 1.63 µM | 3.02 µM | 1.69 µM | 3.2 µM | 1.81 µM | 3.35 µM | 1.75 | 3.13
17 | CNC(SC)=C1C(=O)OC(C)(C)OC1=O |  | > 100 µM |  | > 100 µM |  | > 100 µM |  | > 100 µM |  |  |  | > 100 µM |  | > 100 µM |  | > 100 µM |  | > 100 µM |  | > 100
